In a melting point compilation (Tetko et al.; mined from patent text by program, amines drawn as free bases though some values may be those of a salt):

Row | Compound | melting point
1 | COc1ccc(-n2nc3c(-c4ccccc4)c(C)[nH]cc-3c2=O)cc1 | 300 to 310 °C
2 | CC(C)(C)c1cc(SCc2ccc(C(=O)O)cc2)cc(C(C)(C)C)c1O | 171 °C
3 | Cc1cn(C2C=CC(CO)O2)c(=O)[nH]c1=S (stereo not drawn) | 117 to 118 °C
4 | CC(C)(Oc1ccc(OCc2ccccc2)cc1)C(=O)O | 134 to 137 °C
5 | CC[C@H](C)CNC(=O)[C@@H](C[C@H](O)[C@H](CC1CCCCC1)NC(=O)[C@H](Cc1cscn1)NC(=O)OC(C)(C)C)C(C)(C)O | 190 to 193 °C
6 | CCC[C@H](N[C@@H](C)C(=O)N1N=C(C(C)(C)C)S[C@H]1C(=O)O)C(=O)OCC | 183 to 185 °C
7 | NS(=O)(=O)c1nc(-c2ccc([N+](=O)[O-])cc2)c[nH]1 | 227 to 229 °C
8 | CCCc1nc2ccccc2n1Cc1ccc(C2=C(C(=O)O)CCC2)cc1 | 224 to 226 °C
9 | COC(=O)c1c([N+](=O)[O-])cccc1S(N)(=O)=O | 227 to 229 °C
10 | COc1cc(N)c(Cl)cc1-c1nn(C2CCN(CCc3ccccc3)CC2)c(=O)o1 | 184 °C
11 | CCNc1cccnc1N(CC)CC1CCN(C(=O)c2ccc[nH]2)CC1 | 109 to 110 °C
12 | Cc1sc2[nH]c(=O)c(=O)[nH]c2c1C | > 300 °C
13 | Nc1nc2ccccc2c2c1ncn2COCc1ccccc1 | 168 to 172 °C
14 | CC(=O)OCC(=O)C1CCC2C3CCC4CC(O)C(N5CCOC(C)(C)C5)CC4(C)C3CCC12C (stereo not drawn) | 174 to 175 °C
15 | COc1ccc(C2=NN(C3CCN(C(=O)CCCNC(=O)OC(C)(C)C)CC3)C(=O)[C@@H]3CC=CC[C@H]23)cc1OC | 79 to 83 °C
16 | Cc1ccc(C=CC(C#N)=NOS(C)(=O)=O)cc1 | 134 to 135 °C
17 | CC(C(=O)O)c1ccc(C=C2CCCC2O)cc1 (stereo not drawn) | 125 to 132 °C
18 | CCOC(=O)c1c(CN(CC)CC)nc2sc3cnccc3c2c1-c1ccc(OC)c(OC)c1 | 163 to 165 °C
19 | COc1cc(C=C2SC(N3CCOCC3)=NC2=O)cc(-c2ccc(O)c(C34CC5CC(CC(C5)C3)C4)c2)c1O | 335 to 338 °C
20 | Oc1ccc2c(c1)OC(c1ccc(OCCN3CCCCC3)cc1)c1c-2ccc2cc(O)ccc12 (stereo not drawn) | 158 to 161 °C
21 | CC(C)(C)OC(=O)c1cccc(-c2ccc([N+](=O)[O-])cc2)c1 | 110 to 111 °C
22 | O=C(CC(CSC(=O)c1ccccc1)C(=O)O)c1ccc(Br)cc1 (stereo not drawn) | 133 to 135 °C
23 | COc1ccc(C(=O)N[C@@H](CNC(=O)c2ccc(C)cc2)c2ccccc2)cc1 | 230 to 238 °C

Row | Compound | melting point
24 | CCOC(=O)c1c(N2CCN(Cc3ccccc3)CC2)n[nH]c1C | 124 to 126 °C
25 | c1ccc(COc2nn3c(-c4cc(-c5cccs5)on4)nnc3c3ccccc23)nc1 | 213 to 215 °C
26 | CC(=O)N1CCN(c2ccc(Nc3nccc(-c4sc(Nc5ccccc5)nc4C)n3)cc2)CC1 | 245 to 246 °C
27 | Cc1cc(Cl)ccc1N=CN(C)SN(C)C=Nc1ccc(Cl)cc1C | 124 to 126 °C
28 | O=C(NC1CN2CCC1CC2)c1cccc2oc(-c3ccccc3)nc12 (stereo not drawn) | 77 to 80 °C
29 | Cc1c(C)c2c(c(C)c1N)CC(C)(CN1CCN(CC(c3ccccc3)c3ccccc3)CC1)O2 (stereo not drawn) | 130 to 132 °C
30 | CC(=O)c1c(C)nn2ccccc12 | 85.2 to 88.1 °C
31 | CCCC(=Cc1cccc([N+](=O)[O-])c1)[N+](=O)[O-] | 45 to 47 °C
32 | CC(=O)c1cccc(-c2ccc(O)cc2)c1 | 146 to 149 °C
33 | Ic1ccc(OCCCCCCCN2CC2)nc1 | 41 to 45 °C
34 | CS(=O)(=O)c1ccc(-c2oc3ccccc3c(=O)c2-c2cnccc2Cl)cc1 | 232 to 233 °C
35 | COc1cc(C)c2c(Oc3cccc(C(F)(F)F)c3)c(OC)cc(NC(C)CCC[N+](=O)[O-])c2n1 (stereo not drawn) | 84.8 to 85.1 °C
36 | CC(=O)c1c[nH]c2cn[nH]c2c1=O | > 320 °C
37 | C=CCC(=CC(N)C(=O)O)CP(=O)(O)O (stereo not drawn) | 154 to 157 °C
38 | CN(C)C(=O)C(C)(C)n1cc(Cl)c(-c2ccccc2Cl)n1 | 161 to 163 °C
39 | Nc1cc(Cl)c(N)c2c1C(=O)c1ccccc1C2=O | 207 to 210 °C
40 | COc1cc2ncc(NC(=O)C=Cc3cc(OC)c(OC(C)=O)c(OC)c3)c(-c3ccccc3)c2cc1OC | 256 to 257 °C
41 | Cc1c(N2CC3CN(Cc4ccccc4)CC3C2)nn2c(-c3ccnc(NC(=O)OC(C)(C)C)c3)c(-c3ccc(F)cc3)nc2c1C (stereo not drawn) | 214 to 216 °C
42 | CCCCCCCN(C[C@H]1CCCC[C@H]1CN(CCCCCCC)C(=O)Nc1ccc(N(C)C)cc1)C(=O)Nc1ccc(N(C)C)cc1 | 135 to 138 °C
43 | Sc1nc(-c2ccc3c(c2)OCO3)c(-c2ccc3c(c2)OCO3)[nH]1 | 282 to 283 °C
44 | Cc1ccc(C(=O)CC(=O)OC(C)(C)C)c(O)c1 | 88 to 90 °C
45 | CC(C)OC(=O)c1cc(N=c2sc(=O)n3n2CCCC3)c(F)cc1F | 86 to 88 °C
46 | Cc1cnc2c(c1)CCCC2Cl (stereo not drawn) | 177 °C

Row | Compound | melting point
47 | O=C1C(=C2CCCN2Cc2ccccc2)c2ccccc2N1c1cccc(Cl)c1 | 72 to 75 °C
48 | CCCCc1cc2cc([N+](=O)[O-])ccc2[nH]1 | 105 °C
49 | COc1ccc(-c2c(NC(=O)Nc3ccc(F)cc3F)cnc3ccc(Cl)cc23)c(OC)c1OC | 120 to 122 °C
50 | CC(CC(=O)Nc1c(Cl)ccc2nc(CCCNCCCO)ccc12)c1ccccc1 (stereo not drawn) | 118 to 120 °C
51 | O=CC(=Cc1ccc(OC(=O)c2ccccc2F)cc1)C(C=O)=Cc1ccc(OC(=O)c2ccccc2F)cc1 | 197 to 199 °C
52 | Cc1cc(Oc2c(Cl)cc(C(F)(F)F)cc2Cl)nn1C(=O)NCc1ccccc1 | 50 to 53 °C
53 | Cc1ccccc1SCc1c(CCN(C)C)[nH]c2ccccc12 | 134 to 137 °C
54 | O=c1[nH]c(-c2ccc(F)cc2)nc2ccc(CN3CCOCC3)cc12 | 322 to 323 °C
55 | CC(O)(c1nc2ccc(S(=O)(=O)c3ccccc3)cc2[nH]1)C(F)(F)F (stereo not drawn) | 115 to 117 °C
56 | CCOC(=O)C1=C(C)NC(C)=C(C(=O)OCC)C1c1ccc(F)cc1 | 150 to 151 °C
57 | CSC1(C)C(=O)N(C(C)=O)c2ccc(C3=NNC(=O)SC3)cc21 (stereo not drawn) | 198 °C
58 | CN1CCN(C(=O)Nc2cccc3nc(NC4CCc5ccccc54)ccc23)CC1 (stereo not drawn) | 142 °C
59 | O=C([C@@H](Cc1ccc(Cl)cc1)NC1CCCCC1)N1CCC(Cn2cncn2)(C2CCCCC2)CC1 | 60 °C
60 | CCC(C)(C)c1ccc(Oc2ccc(C(F)(F)F)cc2NC(=O)Nc2cc(C(F)(F)F)cc(C(F)(F)F)c2)c(C(=O)O)c1 | 238 to 240 °C
61 | N#CC(C#N)=C(N)NCCCc1ccccc1 | 165 to 167 °C
62 | COC(=O)c1cccnc1SCc1cccc(OC)c1 | 69 to 70 °C
63 | Cc1ccc(NC(=O)c2ccc(/C=C/C(=O)NO)s2)cc1Nc1nc(-c2cccnc2)cs1 | 242 °C
64 | N#Cc1ccc2c(c1)C(=O)c1ccccc1CN2 | 235 to 236 °C
65 | CN(C)CCNC(=O)Cc1ccc(OCc2ccc(-c3ccccc3)cc2)cc1 | 160 to 161 °C
66 | COC(=O)c1cc(C(=O)Cl)cc([N+](=O)[O-])c1 | 66 to 68 °C
67 | [O-][N+]1=C(c2ccccc2Cl)c2cc(Cl)ccc2-c2ncncc2C1 | 216 to 217 °C
68 | O=C(O)CCCC/C=C(\c1ccc(C2=N[C@H](C(=O)NCCCCC3CCCCC3)CO2)cc1)c1cccnc1 | 61 °C
